From paper PMC7413254 (Nature Communications, 2020)
Like-named read-outs stand apart in the source and are kept apart here.

Assays:
[1] = test system: non-expressing oocytes; experiment: cells; assay type: cell-based, Xenopus laevis; details: Xenopus laevis, total [3H]CQ transport; for inhibition at 500 µM: [test solute] = 0.5 mM; for inhibition at 1000 µM: [test solute] = 1 mM; for inhibition at 2000 µM: [test solute] = 2 mM
In short: (§1)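 Using pH 5.5 ND96 at 27.5 °C, uptake is followed for 1.5 h, stopped with ice-cold buffer, and quantified as accumulated radioactivity per oocyte after SDS lysis.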

[2] = molecular target: T1, PfCRT^3D7 (Plasmodium falciparum, UniProt Q8IBZ9); experiment: cell-based; assay type: cell-based; details: total [3H]CQ transport; for inhibition at 500 µM: [test solute] = 0.5 mM; for inhibition at 1000 µM: [test solute] = 1 mM; for inhibition at 2000 µM: [test solute] = 2 mM
In short: as §1

[3] = molecular target: T2, PfCRT^Dd2 (Plasmodium falciparum, UniProt Q9N623, A220S/I356T/K76T/M74I/N326S/N75E/Q271E/R371I); experiment: [3H]CQ uptake into Xenopus oocytes, cis-inhibition by unlabelled solute; assay type: cell-based
In short: as §1

[4] = molecular target: T3, PfCRT^Ecu1110 (Plasmodium falciparum, UniProt Q9N623, A220S/I356L/K76T/N326D); experiment: as above; assay type: cell-based
In short: as §1

[5] = test system: non-expressing oocytes; assay type: cell-based, Xenopus laevis; details: total [3H]CQ transport; for Uptake of [3H]CQ (% non-expressing oocyte control), trans-stimulation: non-expressing oocytes, normalised to the oocyte type control; for Uptake of [3H]CQ (% PfCRTDd2 control), trans-stimulation, non-expressing oocytes: mean ± SEM, SEM
In short: (§2)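 Oocytes (ten per treatment, ≥4 independent frogs/days) were preloaded by injecting VF-6 in 25 nL ND96 at pH 5.0, 5.5, 6.0 or 7.0, or Na^+-free choline buffer, then uptake run 1.5 h, 27.5 °C, ND96 pH 5.5 by default. Internal concentrations assumed ~400 nL oocyte volume.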

[6] = molecular target: T1, PfCRT^3D7; experiment: cell-based; assay type: cell-based
In short: as §2

[7] = molecular target: T2, PfCRT^Dd2; experiment: cell-based; assay type: cell-based; details: […]; for activity at 45000 µM: [test solute]i = 45 mM (30 mM for some solutes due to solubility)
In short: as §2

[8] = molecular target: T3, PfCRT^Ecu1110; experiment: cell-based; assay type: cell-based; details: […]
In short: as §2

[9] = molecular target: T4, PfNT1 (Plasmodium falciparum, UniProt Q8IDM6); experiment: cell-based; assay type: cell-based; details: for activity at 5000 µM: total [3H]CQ transport
T4 construct: expressed in transfected cells; host or cells: Xenopus laevis oocytes (stage V-VI), cRNA-injected
In short: as §2

[10] = test system: PfCRT; experiment: Influx of VF-6 via PfCRT into the oocyte, solutes tested as potential co-substrates; assay type: cell-based, Plasmodium falciparum; design: key: X: Compounds that have been tested as potential co-substrates but are not required for influx of VF-6 via PfCRT into the oocyte; details: X marks the solute
[11] = test system: PfCRT; experiment: Test of solutes as potential co-substrates for influx of VF-6 via PfCRT into the oocyte; assay type: cell-based, Plasmodium falciparum; design: key: X: Compounds that have been tested as potential co-substrates but are not required for influx of VF-6 via PfCRT into the oocyte; details: X = tested
[12] = Oocyte, mean ± SEM, SEM, read-out: Uptake of [3H]CQ (% PfCRTDd2 control), cis-inhibition, non-expressing oocytes
[13] = non-expressing oocytes, normalised to the oocyte type control, read-out: Uptake of [3H]CQ (% non-expressing oocyte control), cis-inhibition
[14] = PfCRT3D7 oocytes, normalised to the oocyte type control, read-out: Uptake of [3H]CQ (% PfCRT3D7 control), cis-inhibition
[15] = mean ± SEM, SEM, read-out: Uptake of [3H]CQ (% PfCRTDd2 control), cis-inhibition, PfCRT3D7
[16] = read-out: PfCRT-mediated [3H]CQ transport, cis-inhibition (% PfCRTDd2 control)
[17] = read-out: Uptake of [3H]CQ (% PfCRTDd2 control), cis-inhibition, PfCRTDd2, SEM
[18] = read-out: PfCRT-mediated [3H]CQ transport, cis-inhibition (% PfCRTEcu1110 control)
[19] = read-out: Uptake of [3H]CQ (% PfCRTDd2 control), cis-inhibition, PfCRTEcu1110, SEM
[20] = read-out: Uptake of [3H]CQ (% PfCRTEcu1110 control), cis-inhibition
[21] = read-out: [3H]CQ transport (% PfCRTEcu1110 control), cis-inhibition, PfCRTEcu1110, SEM

T1 sequence (Q8IBZ9 59-398): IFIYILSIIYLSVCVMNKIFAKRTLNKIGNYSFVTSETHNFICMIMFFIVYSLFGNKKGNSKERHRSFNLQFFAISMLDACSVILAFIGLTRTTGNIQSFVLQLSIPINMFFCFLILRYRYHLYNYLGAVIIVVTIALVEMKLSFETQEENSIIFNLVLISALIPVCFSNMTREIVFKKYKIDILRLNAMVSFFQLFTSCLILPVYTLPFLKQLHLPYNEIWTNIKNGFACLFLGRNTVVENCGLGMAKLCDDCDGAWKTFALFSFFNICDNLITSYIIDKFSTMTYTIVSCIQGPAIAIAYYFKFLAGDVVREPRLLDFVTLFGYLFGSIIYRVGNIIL
T2 sequence (Q9N623 whole entry A220S/I356T/K76T/M74I/N326S/N75E/Q271E/R371I): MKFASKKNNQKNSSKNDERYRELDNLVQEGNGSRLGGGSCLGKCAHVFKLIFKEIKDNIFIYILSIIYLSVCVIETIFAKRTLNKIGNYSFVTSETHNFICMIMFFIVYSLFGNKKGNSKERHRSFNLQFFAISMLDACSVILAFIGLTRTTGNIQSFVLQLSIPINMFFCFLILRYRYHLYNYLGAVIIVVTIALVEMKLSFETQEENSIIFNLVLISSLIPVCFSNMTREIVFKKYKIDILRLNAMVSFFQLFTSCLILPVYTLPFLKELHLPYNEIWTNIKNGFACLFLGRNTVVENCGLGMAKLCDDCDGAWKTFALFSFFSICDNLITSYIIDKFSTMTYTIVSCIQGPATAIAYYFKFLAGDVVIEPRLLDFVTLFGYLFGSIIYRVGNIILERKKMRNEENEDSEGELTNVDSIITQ
T3 sequence (Q9N623 whole entry A220S/I356L/K76T/N326D): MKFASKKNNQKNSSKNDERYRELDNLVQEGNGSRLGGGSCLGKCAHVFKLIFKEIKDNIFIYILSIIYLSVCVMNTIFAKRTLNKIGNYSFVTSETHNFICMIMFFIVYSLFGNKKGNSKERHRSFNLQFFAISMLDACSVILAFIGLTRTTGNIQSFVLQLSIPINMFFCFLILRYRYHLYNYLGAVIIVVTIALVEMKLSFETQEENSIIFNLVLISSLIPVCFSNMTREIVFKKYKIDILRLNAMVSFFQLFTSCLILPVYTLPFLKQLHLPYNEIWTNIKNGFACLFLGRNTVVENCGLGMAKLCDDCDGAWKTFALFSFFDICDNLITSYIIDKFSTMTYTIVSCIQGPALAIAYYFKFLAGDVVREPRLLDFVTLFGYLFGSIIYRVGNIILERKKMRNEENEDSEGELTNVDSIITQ
T4 sequence (Q8IDM6 whole entry): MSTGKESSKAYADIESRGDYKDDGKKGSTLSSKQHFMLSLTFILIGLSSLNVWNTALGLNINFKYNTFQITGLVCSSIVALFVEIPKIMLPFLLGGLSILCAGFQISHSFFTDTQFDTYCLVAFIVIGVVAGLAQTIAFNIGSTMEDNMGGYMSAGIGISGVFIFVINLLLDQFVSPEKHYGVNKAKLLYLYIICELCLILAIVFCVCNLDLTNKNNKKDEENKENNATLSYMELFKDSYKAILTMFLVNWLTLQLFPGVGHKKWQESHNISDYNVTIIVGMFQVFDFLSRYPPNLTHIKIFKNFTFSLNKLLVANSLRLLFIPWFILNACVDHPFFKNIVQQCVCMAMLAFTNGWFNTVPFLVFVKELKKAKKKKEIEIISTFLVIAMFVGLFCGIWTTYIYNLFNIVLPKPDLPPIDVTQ

CC[C@H](C)[C@H](N)C(=O)O [L-isoleucine]
inhibition at 500 µM [1, 12]: 2.7 ± 0.08% | inhibition at 1000 µM [1, 12]: 3.3 ± 0.03% | inhibition at 2000 µM [1, 12]: 2.4 ± 0.07% | inhibition at 500 µM [1, 13]: 94 ± 7.5% | inhibition at 1000 µM [1, 13]: 100 ± 4.5% | inhibition at 2000 µM [1, 13]: 101 ± 3.2% | inhibition at 500 µM [2, 14]: 99 ± 4.7% | inhibition at 1000 µM [2, 14]: 98 ± 5.7% | inhibition at 2000 µM [2, 14]: 102 ± 4.7% | inhibition at 500 µM [2, 15]: 3.1 ± 0.07% | inhibition at 1000 µM [2, 15]: 2.8 ± 0.04% | inhibition at 2000 µM [2, 15]: 2.8 ± 0.02% | inhibition at 500 µM [3, 16]: 95 ± 5.1% | inhibition at 2000 µM [3, 16]: 96 ± 3.7% | inhibition at 500 µM [3, 17]: 97 ± 4.9% | inhibition at 1000 µM [3, 17]: 100 ± 6.5% | inhibition at 2000 µM [3, 17]: 98 ± 6.2% | inhibition at 500 µM [4, 18]: 93 ± 5.9% | inhibition at 1000 µM [4, 18]: 98 ± 4.1% | inhibition at 2000 µM [4, 18]: 98 ± 5.2% | inhibition at 500 µM [4, 19]: 31 ± 1.7% | inhibition at 1000 µM [4, 19]: 33 ± 1.8% | inhibition at 2000 µM [4, 19]: 33 ± 1.5% | inhibition at 500 µM [4, 20]: 96 ± 6.9% | inhibition at 1000 µM [4, 20]: 100 ± 6.9% | inhibition at 2000 µM [4, 20]: 101 ± 9.5% | inhibition at 500 µM [4, 21]: 28 ± 0.3% | inhibition at 1000 µM [4, 21]: 30 ± 0.6% | inhibition at 2000 µM [4, 21]: 30 ± 0.5% | Uptake of [3H]CQ (% non-expressing oocyte control), trans-stimulation ([5]; [test solute]i = 5 mM): 97 ± 1.3 % non-expressing oocyte control | Uptake of [3H]CQ (% non-expressing oocyte control), trans-stimulation ([5]; [test solute]i = 45 mM (30 mM for some solutes due to solubility)): 100 ± 2.7 % non-expressing oocyte control | Uptake of [3H]CQ (% PfCRTDd2 control), trans-stimulation, non-expressing oocytes ([5]; [test solute]i = 5 mM (intracellular)): 3.2 ± 0.06 % PfCRTDd2 control | Uptake of [3H]CQ (% PfCRTDd2 control), trans-stimulation, non-expressing oocytes ([5]; [test solute]i = 45 mM (intracellular; 30 mM for some solutes due to solubility)): 2.5 ± 0.05 % PfCRTDd2 control | activity at 5000 µM ([6]; PfCRT3D7 oocytes, [test solute]i = 5 mM, total [3H]CQ transport, normalised to the oocyte type control, read-out: Uptake of [3H]CQ (% PfCRT3D7 control), trans-stimulation): 100 ± 3.6% | [3H]CQ transport (% PfCRT3D7 control), trans-stimulation, PfCRT3D7 ([6]; SEM): 0.3 ± 0.02 % PfCRT3D7 control | activity at 5000 µM ([6]; [test solute]i = 5 mM (intracellular), PfCRT3D7 oocytes, normalised to oocyte type control, read-out: PfCRT-mediated [3H]CQ transport, trans-stimulation (% PfCRT3D7 control)): 98 ± 4.1% | activity at 45000 µM ([6]; SEM, read-out: Uptake of [3H]CQ (% PfCRTDd2 control), trans-stimulation, PfCRT3D7): 3.3 ± 0.01% | activity at 45000 µM ([6]; read-out: PfCRT-mediated [3H]CQ transport, trans-stimulation (% PfCRT3D7 control)): 96 ± 3.5% | activity at 45000 µM ([6]; read-out: Uptake of [3H]CQ (% PfCRT3D7 control), trans-stimulation): 98 ± 4.3% | activity at 5000 µM ([6]; total [3H]CQ transport, [test solute]i = 5 mM (intracellular), mean ± SEM, SEM, read-out: Uptake of [3H]CQ (% PfCRTDd2 control), trans-stimulation, PfCRT3D7): 3.3 ± 0.02% | activity at 5000 µM ([7]; pH 5.5, read-out: PfCRT-mediated [3H]CQ transport, trans-stimulation (% PfCRTDd2 control), [test solute]i = 5 mM (intracellular), PfCRTDd2 oocytes, normalised to oocyte type control): 94 ± 5.1% | activity at 5000 µM ([7]; pH 5.5, read-out: Uptake of [3H]CQ (% PfCRTDd2 control), trans-stimulation, PfCRTDd2, total [3H]CQ transport, [test solute]i = 5 mM (intracellular), mean ± SEM, SEM): 96 ± 4.4% | activity at 5000 µM ([7]; pH 5.5, read-out: Uptake of [3H]CQ (% PfCRTDd2 control), trans-stimulation, PfCRTDd2 oocytes, [test solute]i = 5 mM, total [3H]CQ transport, normalised to the oocyte type control): 96 ± 4.4% | activity at 45000 µM ([7]; pH 5.5, read-out: Uptake of [3H]CQ (% PfCRTDd2 control), trans-stimulation, PfCRTDd2 oocytes, total [3H]CQ transport, normalised to the oocyte type control): 100 ± 2.2% | activity at 5000 µM ([7]; pH 5.5, read-out: [3H]CQ transport (% PfCRTDd2 control), trans-stimulation, PfCRTDd2, trans-stimulation, [test solute]i = 5 mM (injected), PfCRT-mediated component (background subtracted), mean ± SEM, SEM): 94 ± 5.1% | activity at 45000 µM ([7]; pH 5.5, read-out: [3H]CQ transport (% PfCRTDd2 control), trans-stimulation, PfCRTDd2, trans-stimulation, PfCRT-mediated component (background subtracted), mean ± SEM, SEM): 98 ± 3.6% | activity at 5000 µM ([8]; pH 5.5, read-out: PfCRT-mediated [3H]CQ transport, trans-stimulation (% PfCRTEcu1110 control), [test solute]i = 5 mM (intracellular), PfCRTEcu1110 oocytes, normalised to oocyte type control): 97 ± 2.1% | activity at 5000 µM ([8]; pH 5.5, read-out: Uptake of [3H]CQ (% PfCRTEcu1110 control), trans-stimulation, PfCRTEcu1110 oocytes, [test solute]i = 5 mM, total [3H]CQ transport, normalised to the oocyte type control): 99 ± 3.5% | activity at 45000 µM ([8]; pH 5.5, read-out: Uptake of [3H]CQ (% PfCRTEcu1110 control), trans-stimulation, PfCRTEcu1110 oocytes, [test solute]i = 45 mM (30 mM for some solutes due to solubility), total [3H]CQ transport, normalised to the oocyte type control): 99 ± 3.2% | activity at 5000 µM ([8]; read-out: Uptake of [3H]CQ (% PfCRTDd2 control), trans-stimulation, PfCRTEcu1110, total [3H]CQ transport, [test solute]i = 5 mM (intracellular), mean ± SEM, SEM): 35 ± 1.5% | activity at 45000 µM ([8]; read-out: Uptake of [3H]CQ (% PfCRTDd2 control), trans-stimulation, PfCRTEcu1110, total [3H]CQ transport, [test solute]i = 45 mM (intracellular; 30 mM for some solutes due to solubility), mean ± SEM, SEM): 35 ± 1.1% | activity at 5000 µM ([9]; PfNT1 oocytes, [test solute]i = 5 mM, normalised to the oocyte type control, read-out: Uptake of [3H]CQ (% PfNT1 control), trans-stimulation): 98 ± 2.2% | activity at 45000 µM ([9]; SEM, read-out: Uptake of [3H]CQ (% PfCRTDd2 control), trans-stimulation, PfNT1): 2.2 ± 0.03% | activity at 45000 µM ([9]; read-out: Uptake of [3H]CQ (% PfNT1 control), trans-stimulation): 100 ± 2.5% | activity at 5000 µM ([9]; [test solute]i = 5 mM (intracellular), mean ± SEM, SEM, read-out: Uptake of [3H]CQ (% PfCRTDd2 control), trans-stimulation, PfNT1): 3.1 ± 0.02% | Compounds that have been tested as potential co-substrates but are not required for influx of VF-6 via PfCRT into the oocyte [10]: X | Tested as potential co-substrate but not required for influx of VF-6 via PfCRT into the oocyte [11]: X
